Several values for one entry are separate records, joined by “and”; a condition that tells them apart may be missing. Identical values can stand only once. Toxic doses and inconclusive results are not listed.
System: P388 leukemia ip, CD2F1 mice, survival T/C
Assay: NCI In Vivo Anticancer Drug Screen. Data for tumor model P388 Leukemia (intraperitoneal) in CD2F1 (CDF1) mice
Settings: endpoint: median survival time, higher = longer survival
In short: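 Mice carrying the transplanted tumor received test compound or vehicle. Survival was recorded in each group, and the value is the treated-group measurement divided by that of the vehicle-treated control group.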

[1] = dose: 50.0 mg/kg/injection, schedule: Q01DX009 (ip), vehicle: saline
[2] = dose: 100.0 mg/kg/injection, schedule: Q01DX009 (ip), vehicle: saline
[3] = dose: 200.0 mg/kg/injection, schedule: Q01DX009 (ip), vehicle: saline

Cc1cc(/C=C2/OC(=O)c3ccccc32)cc(C(C)(C)C)c1O
T/C (dose: 100.0 mg/kg/injection, schedule: Q04DX002 (ip), vehicle: saline): 101 % of control
T/C (dose: 200.0 mg/kg/injection, schedule: Q04DX002 (ip), vehicle: saline): 99 % of control
T/C (dose: 400.0 mg/kg/injection, schedule: Q04DX002 (ip), vehicle: saline): 101 % of control

CC(=O)OC1CCC2C3CCC4=C/C(=N/NC(=S)Nc5ccccc5)CCC4(C)C3CCC12C (centres undefined)
T/C (dose: 100.0 mg/kg/injection, schedule: Q01DX001 (ip), vehicle: saline): 101 % of control
T/C (dose: 200.0 mg/kg/injection, schedule: Q01DX001 (ip), vehicle: saline): 101 % of control
T/C (dose: 400.0 mg/kg/injection, schedule: Q01DX001 (ip), vehicle: saline): 100 % of control

CC(CO)CCC(O)C(C)(O)C1CCC2(O)C3=CC(=O)C4CC(O)C(O)CC4(C)C3CCC12C (centres undefined)
T/C (dose: 1.25 mg/kg/injection, schedule: Q01DX005 (ip), vehicle: Klucel (hydroxypropylcellulose) (HPC)): 102 % of control
T/C (dose: 2.5 mg/kg/injection, schedule: Q01DX005 (ip), vehicle: Klucel (hydroxypropylcellulose) (HPC)): 97 % of control
T/C (dose: 5.0 mg/kg/injection, schedule: Q01DX005 (ip), vehicle: Klucel (hydroxypropylcellulose) (HPC)): 98 % of control
T/C (dose: 10.0 mg/kg/injection, schedule: Q01DX005 (ip), vehicle: Klucel (hydroxypropylcellulose) (HPC)): 100 % of control
T/C (dose: 20.0 mg/kg/injection, schedule: Q01DX005 (ip), vehicle: Klucel (hydroxypropylcellulose) (HPC)): 100 % of control
T/C (dose: 40.0 mg/kg/injection, schedule: Q01DX005 (ip), vehicle: Klucel (hydroxypropylcellulose) (HPC)): 100 % of control
T/C (dose: 80.0 mg/kg/injection, schedule: Q01DX005 (ip), vehicle: Klucel (hydroxypropylcellulose) (HPC)): 98 % of control

COC(=O)Nc1ccc(C(=O)c2ccccc2)cc1
T/C [1]: 98 % of control
T/C [2]: 99 % of control
T/C [3]: 93 % of control

C[C@@](O)(/C=C/[C@H]1CC=CC(=O)O1)[C@@H](C[C@@H](O)\C=C/C=C\C=C\CO)OP(=O)(O)O
T/C (dose: 12.5 mg/kg/injection, schedule: Q01DX005 (ip), vehicle: other): 150 % of control and 157 % of control
T/C (dose: 25.0 mg/kg/injection, schedule: Q01DX005 (ip), vehicle: other): 174 % of control

CN(C)C(=O)n1ccc(NC=O)n1
T/C [1]: 92 % of control
T/C [2]: 94 % of control
T/C [3]: 103 % of control

COc1cc(C(=O)NC2CC2)cc(OC)c1OC
T/C (dose: 25.0 mg/kg/injection, schedule: Q01DX009 (ip), vehicle: saline with Tween-80): 101 % of control
T/C (dose: 50.0 mg/kg/injection, schedule: Q01DX009 (ip), vehicle: saline with Tween-80): 104 % of control
T/C (dose: 100.0 mg/kg/injection, schedule: Q01DX009 (ip), vehicle: saline with Tween-80): 107 % of control
T/C (dose: 200.0 mg/kg/injection, schedule: Q01DX009 (ip), vehicle: saline with Tween-80): 110 % of control

COC(=O)/C(=C/c1ccc(/C=C(/C(=O)O)c2ccc(OC)cc2)o1)c1ccc(OC)cc1
T/C (dose: 100.0 mg/kg/injection, schedule: Q04DX002 (ip), vehicle: saline with Tween-80): 96 % of control
T/C (dose: 200.0 mg/kg/injection, schedule: Q04DX002 (ip), vehicle: saline with Tween-80): 92 % of control
T/C (dose: 400.0 mg/kg/injection, schedule: Q04DX002 (ip), vehicle: saline with Tween-80): 101 % of control

Cc1ccc(C[N+](C)(C)CCCCCOc2c(Br)cc(Br)cc2Br)o1
T/C (dose: 3.13 mg/kg/injection, schedule: Q04DX003 (ip), vehicle: Klucel (hydroxypropylcellulose) (HPC)): 101 % of control
T/C (dose: 6.25 mg/kg/injection, schedule: Q04DX003 (ip), vehicle: Klucel (hydroxypropylcellulose) (HPC)): 94 % of control
T/C (dose: 12.5 mg/kg/injection, schedule: Q04DX003 (ip), vehicle: Klucel (hydroxypropylcellulose) (HPC)): 98 % of control and 106 % of control

C=C1C(=O)CCC1/C=C\C (centres undefined)
T/C (dose: 12.5 mg/kg/injection, schedule: Q01DX005 (ip), vehicle: saline with Tween-80): 111 % of control
T/C (dose: 25.0 mg/kg/injection, schedule: Q01DX005 (ip), vehicle: saline with Tween-80): 110 % of control
T/C (dose: 50.0 mg/kg/injection, schedule: Q01DX005 (ip), vehicle: saline with Tween-80): 99 % of control

Cc1cc(C)nc(NS(=O)(=O)c2ccc(NC(=O)Nc3cc(F)ccc3F)cc2)n1
T/C (dose: 50.0 mg/kg/injection, schedule: Q01DX009 (ip), vehicle: Klucel (hydroxypropylcellulose) (HPC)): 96 % of control
T/C (dose: 100.0 mg/kg/injection, schedule: Q01DX009 (ip), vehicle: Klucel (hydroxypropylcellulose) (HPC)): 95 % of control
T/C (dose: 200.0 mg/kg/injection, schedule: Q01DX009 (ip), vehicle: Klucel (hydroxypropylcellulose) (HPC)): 91 % of control

Cc1ccc(Sc2cccc3c(C)c4cccc5c4c(c23)C[S+]5c2ccc(C)cc2)cc1 (centres undefined)
T/C (dose: 2.0 mg/kg/injection, schedule: Q01DX009 (ip), vehicle: saline with Tween-80): 104 % of control
T/C (dose: 3.0 mg/kg/injection, schedule: Q01DX009 (ip), vehicle: saline with Tween-80): 122 % of control

— PubChem BioAssay AID330 (DTP/NCI, 2004)
